One assay addresses T1, human MC1 receptor (Homo sapiens, UniProt Q01726).
T1 construct: endogenous in cells; host or cells: M4Be human melanoma (melanocyte) cell line
The assay can be described thus: Inhibition of AMPc production induced by α-MSH on M4Be cells. Type of assay: cell-based. The conditions noted are these: M4Be human cell line, 5×10^−8 M α-MSH. Here is the method: Five Palm-dipeptides according to this invention were introduced at different concentrations and each measurement was made in triplicate. Two or three series of experiments were made.
The M4Be human cell line (Jacubovich et al. Cancer Immunol. Immunother. 1979, 7, 59-64), a melanocytes cell line capable of producing melanines, was used in this study to determine the values of CI50.
The cells were maintained in the Dulbecco modified Eagle medium with 10% of foetal calf serum (FCS), 1 mM of glutamine, 100 U/ml of penicillin and 10^−4 g/ml of streptomycine.
All cell lines were maintained at 37° C. in an atmosphere with 5% of CO2 and cell culture media were renewed every two days. The cells were applied in contact with a plate with 96 wells (Nunc, Roskilde) 24 hours before contact of dipeptides according to the invention.
Cells applied in contact the day before with 8×10^4 cells per well were put in the presence of one of the five dipeptide conjugates according to the invention at various concentrations for 10 minutes at 37° C. with 5×10^−8 M of α-MSH. After this time, the lysis of the cells was made and the AMPc content was measured using a connection test box by competition (RPN225, Amersham Pharmacia Biotech). Each independent experiment was carried out at least twice in triplicate.
The peptidic activity was determined with reference to the AMPc content synthesized by untreated cells and the production of AMPc induced by α-MSH alone. The curves were adjusted and the values of CI50 were determined with non-linear regression in the GraphPad Prism (GraphPad software, San Diego, Calif., United States).

The test system of assay [1] is receptor MC1. The conditions noted are these: Proc. Natl. Acad. Sci. (1995), 92, result in words; cited from earlier work.
Assay [2] deals with receptor MC1. The conditions noted are these: Jayawickreme et al., J. Biol. Chem. 1994; cited from earlier work.
The mark [3] stands for this setting: 10 minutes at 37° C., experiment 1, read-out: CI50 (μM) exp1.
Setting [4] is: 10 minutes at 37° C., experiment 2, read-out: CI50 (μM) exp2.
Where [5] appears, read: average of the experiments, read-out: CI50 (μM) aver.
[6] abbreviates: 10 minutes at 37° C., experiment 3, read-out: CI50 (μM) exp3.

Where two headings read alike, the source gives them in different places. Non-standard residues stand in square brackets, D forms with d. Residues, ends and D or L forms follow the SMILES beside them. No end group written: not given here. *: point of attachment. Palmitoyl = CCCCCCCCCCCCCCCC(=O)*

T1 sequence (Q01726 whole entry): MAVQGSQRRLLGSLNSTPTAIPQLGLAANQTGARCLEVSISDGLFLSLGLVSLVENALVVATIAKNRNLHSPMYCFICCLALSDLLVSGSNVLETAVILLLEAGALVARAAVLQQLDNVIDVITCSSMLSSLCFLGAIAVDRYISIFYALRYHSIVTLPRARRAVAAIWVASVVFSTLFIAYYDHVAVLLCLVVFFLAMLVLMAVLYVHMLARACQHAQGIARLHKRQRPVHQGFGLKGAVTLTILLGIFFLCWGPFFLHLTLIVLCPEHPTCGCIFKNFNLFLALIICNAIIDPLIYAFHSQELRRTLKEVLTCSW

With `CCCCCCCCCCCCCCCC(=O)N[C@@H](CCCNC(=N)N)C(=O)N1CCC[C@H]1C(N)=O` [Compound 49, Palm-Arg-Pro-NH2] (Palmitoyl-Arg-Pro-NH2), the IC50 stood at 20 µM at human MC1 receptor (setting [3]), 26 µM on human MC1 receptor (setting [4]) and 23 µM on human MC1 receptor (setting [5]).

Turning to `CCCCCCCCCCCCCCCC(=O)N[C@@H](CCCNC(=N)N)C(=O)N[C@@H](Cc1c[nH]cn1)C(N)=O` [Compound 39, Palm-Arg-His-NH2] (Palmitoyl-Arg-His-NH2), the IC50 stood at 29 µM at human MC1 receptor (setting [3]), 4.6 µM on human MC1 receptor (setting [4]), 4.4 µM on human MC1 receptor (setting [6]) and 13 µM at human MC1 receptor (setting [5]).

`CCCCCCCCCCCCCCCC(=O)N[C@@H](CO)C(=O)N1CCC[C@H]1C(N)=O` [Compound 125, Palm-Ser-Pro-NH2] (Palmitoyl-Ser-Pro-NH2): the IC50 on human MC1 receptor (setting [3]) was found to be 45 µM; on human MC1 receptor (setting [4]) it was 5.5 µM; on human MC1 receptor (setting [6]), 1 µM; at human MC1 receptor (setting [5]) it was 17 µM.

In the case of `CCCCCCCCCCCCCCCC(=O)N[C@@H](CCCNC(=N)N)C(=O)N[C@@H](CCCCN)C(N)=O` [Compound 50, Palm-Arg-Lys-NH2] (Palmitoyl-Arg-Lys-NH2), the IC50 at human MC1 receptor (setting [3]) is 48 µM; on human MC1 receptor (setting [4]), 9.6 µM; on human MC1 receptor (setting [5]) it was 29 µM.

With `CCCCCCCCCCCCCCCC(=O)N[C@@H](CCCNC(=N)N)C(=O)N[C@@H](CCCNC(=N)N)C(N)=O` [Compound 41, Palm-Arg-Arg-NH2] (Palmitoyl-Arg-Arg-NH2), the values for the IC50 on human MC1 receptor (setting [3]), at human MC1 receptor (setting [4]) and on human MC1 receptor (setting [5]) were 36 µM, 17 µM and 26 µM, respectively.

Take [dW]-Arg-Leu-NH2: in the assay on receptor MC1 [1], the antagonist activity entry is listed as “has an antagonist activity”.

In general, Ki refers to a dissociation constant, usually derived from enzyme kinetics or from competition with a known ligand. Regarding H-MP[dF]R[dW]FKPV-NH2 [153 N-6], the Ki at receptor MC1 [2] is 0.011 µM.

Values taken from US8097590B2, “α-MSH-antagonist dipeptide conjugates” (Centre National de la Recherche Scientifique (CNRS), priority 2004, dated 2012).
